Measurements taken from ChEMBL document CHEMBL6109057, “Synthesis of harmaline N-9 derivatives and investigation of in vitro anticancer activity” (Bioorg Med Chem Lett, 2025).
Calls of active or inactive are those of the source. The rule behind the calls is not given here.

Experiments:
MCF7 [1] = assay: Antiproliferative activity against human MCF7 cells assessed as cell viability at 50 uM measured after 24 hrs relative to control; type: functional; details: read-out: Activity
HCT-116 [2] = assay: Antiproliferative activity against human HCT-116 cells assessed as cell viability at 50 uM measured after 24 hrs relative to control; type: functional; details: read-out: Activity
MGC-803 [3] = assay: Antiproliferative activity against human MGC-803 cells assessed as reduction in cell viability measured after 24 hrs; type: functional, cell-based; details: MGC-803, 24 h
MGC-803 [4] = assay: Antiproliferative activity against human MGC-803 cells assessed as cell viability at 50 uM measured after 24 hrs relative to control; type: functional; details: read-out: Activity
MCF7 [5] = assay: Antiproliferative activity against human MCF7 cells assessed as reduction in cell viability measured after 24 hrs; type: functional, cell-based; details: MCF7, 24 h
HCT-116 [6] = assay: Antiproliferative activity against human HCT-116 cells assessed as reduction in cell viability measured after 24 hrs; type: functional, cell-based; details: HCT-116, 24 h
MCF7 [7] = assay: Antiproliferative activity against human MCF7 cells assessed as reduction in cell viability at 50 uM measured after 24 hrs; type: functional, cell-based
MGC-803 [8] = assay: Antiproliferative activity against human MGC-803 cells assessed as reduction in cell viability at 50 uM measured after 24 hrs; type: functional, cell-based
HCT-116 [9] = assay: Antiproliferative activity against human HCT-116 cells assessed as reduction in cell viability at 50 uM measured after 24 hrs; type: functional, cell-based
SGC-7901 = assay: Antiproliferative activity against human SGC-7901 cells assessed as reduction in cell viability measured after 48 hrs by MTT assay; type: functional, cell-based; details: SGC-7901, 48 h
4T1 = assay: Antiproliferative activity against mouse 4T1 cells assessed as reduction in cell viability measured after 24 hrs by MTT assay; type: functional, cell-based; details: 4T1, 24 h
NCI-H1299 = assay: Antiproliferative activity against human NCI-H1299 cells assessed as reduction in cell viability measured after 48 hrs by MTT assay; type: functional, cell-based; details: NCI-H1299, 48 h
U-87 MG [10] = assay: Antiproliferative activity against human U87 cells assessed as reduction in cell viability measured after 48 hrs; type: functional, cell-based, U-87MG ATCC
HeLa = assay: Antiproliferative activity against human HeLa cells assessed as reduction in cell viability measured after 48 hrs by 3-(4,5-dimethylthiazol-2-yl)-2,5-diphenyltetrazolium bromide assay; type: functional, cell-based
A549 = assay: Antiproliferative activity against human A549 cells assessed as reduction in cell viability measured after 48 hrs by MTT assay; type: functional, cell-based; details: A549, 48 h
HepG2 = assay: Antiproliferative activity against human HepG2 cells assessed as reduction in cell viability measured after 48 hrs by 3-(4,5-dimethylthiazol-2-yl)-2,5-diphenyltetrazolium bromide assay; type: functional, cell-based; details: HepG2, 48 h
U-87 MG [11] = assay: Antiproliferative activity against human U87 cells assessed as reduction in cell viability measured after 24 hrs; type: functional, cell-based, U-87MG ATCC
MGC-803 [12] = assay: Effect on metabolic changes in human MGC-803 cells assessed as down regulation of creatine level at 4 uM by 1H-NMR analysis; type: functional, cell-based
MGC-803 [13] = assay: Effect on metabolic changes in human MGC-803 cells assessed as down regulation of choline phosphate level at 4 uM by 1H-NMR analysis; type: functional, cell-based
MGC-803 [14] = assay: Effect on metabolic changes in human MGC-803 cells assessed as down regulation of taurine level at 4 uM by 1H-NMR analysis; type: functional, cell-based
MGC-803 [15] = assay: Effect on metabolic changes in human MGC-803 cells assessed as down regulation of GSH level at 4 uM by 1H-NMR analysis; type: functional, cell-based
MGC-803 [16] = assay: Effect on metabolic changes in human MGC-803 cells assessed as upregulation of glycine level at 4 uM by 1H-NMR analysis; type: functional, cell-based
MGC-803 [17] = assay: Effect on metabolic changes in human MGC-803 cells assessed as upregulation of leucine level at 4 uM by 1H-NMR analysis; type: functional, cell-based
MGC-803 [18] = assay: Antimigratory activity against human MGC-803 cells assessed as increase in aggregated dead cells at 10 uM measured after 24 hrs by scratch assay; type: functional, cell-based
MGC-803 [19] = assay: Effect on metabolic changes in human MGC-803 cells assessed as down regulation of NAD+ level at 4 uM by 1H-NMR analysis; type: functional, cell-based
[20] = Inhibition of cell clone formation in human MGC-803 cells assessed as percentage of area of cell clones at 1 uM (reference value: 1 +/- 0.02%); type: functional; design: scale not given: the % may be the effect or the level left
[21] = Cytotoxicity against HEK293FT cells assessed as reduction in cell viability measured after 24 hrs; type: toxicity, cell-based; details: human
MGC-803 [22] = assay: Effect on metabolic changes in human MGC-803 cells assessed as down regulation of ADP level at 4 uM by 1H-NMR analysis; type: functional, cell-based
MGC-803 [23] = assay: Antimigratory activity against human MGC-803 cells assessed as increase in number of floating cells at 10 uM measured after 24 hrs by scratch assay; type: functional, cell-based
MGC-803 [24] = assay: Antimigratory activity against human MGC-803 cells assessed as migration rate at 5 uM measured after 48 hrs scratch assay (reference value: 63 +/- 1.61%); type: functional
MGC-803 [25] = assay: Effect on metabolic changes in human MGC-803 cells assessed as down regulation of AMP level at 4 uM by 1H-NMR analysis; type: functional, cell-based
MGC-803 [26] = assay: Antimigratory activity against human MGC-803 cells assessed as migration rate at 2.5 uM measured after 24 hrs scratch assay (reference value: 40.72 +/- 0.86%); type: functional
[27] = Inhibition of cell clone formation in human MGC-803 cells assessed as percentage of area of cell clones at 1.5 uM (reference value: 1 +/- 0.02%); type: functional; design: scale not given: the % may be the effect or the level left
MGC-803 [28] = assay: Antimigratory activity against human MGC-803 cells assessed as migration rate at 2.5 uM measured after 48 hrs scratch assay (reference value: 63 +/- 1.61%); type: functional
MGC-803 [29] = assay: Antimigratory activity against human MGC-803 cells assessed as increase in large number of dead cells at 10 uM measured after 48 hrs by scratch assay; type: functional, cell-based
MGC-803 [30] = assay: Antimigratory activity against human MGC-803 cells assessed as migration rate at 5 uM measured after 24 hrs scratch assay (reference value: 40.72 +/- 0.86%); type: functional
[31] = Inhibition of cell clone formation in human MGC-803 cells assessed as percentage of area of cell clones at 2.5 uM (reference value: 1 +/- 0.02%); type: functional; design: scale not given: the % may be the effect or the level left
MGC-803 [32] = assay: Effect on metabolic changes in human MGC-803 cells assessed as down regulation of aspartic acid level at 4 uM by 1H-NMR analysis; type: functional, cell-based

## COc1ccc2c3c(n(CCCCCCBr)c2c1)C(C)=NCC3
MCF7 [1]
  viability at 50 µM: < 10%
HCT-116 [2]
  viability at 50 µM: < 10%
MGC-803 [3]
  IC50: 15.4 µM
MGC-803 [4]
  viability at 50 µM: < 10%
MCF7 [5]
  IC50: 18.5 µM
HCT-116 [6]
  IC50: 8.95 µM

## COc1ccc2c3c(n(Cc4ccccc4C)c2c1)C(C)=NCC3
MCF7 [7]
  Activity: Active
MGC-803 [8]
  Activity: Active
HCT-116 [9]
  Activity: Active

## COc1ccc2c3c(n(Cc4ccc(F)cc4)c2c1)C(C)=NCC3
MCF7 [7]
  Activity: Active
MGC-803 [8]
  Activity: Active
HCT-116 [9]
  Activity: Active

## COc1ccc2c3c(n(Cc4cccc(C)c4)c2c1)C(C)=NCC3
MCF7 [7]
  Activity: Active
MGC-803 [8]
  Activity: Active
HCT-116 [9]
  Activity: Active

## COc1ccc2c3c(n(CCCCn4c5cc(OC)ccc5c5ccnc(C)c54)c2c1)C(C)=NCC3
MCF7 [1]
  viability at 50 µM: < 10%
HCT-116 [2]
  viability at 50 µM: < 10%
MGC-803 [3]
  IC50: 10.2 µM
MGC-803 [4]
  viability at 50 µM: < 10%
MCF7 [5]
  IC50: 18.7 µM
HCT-116 [6]
  IC50: 4.5 µM

## COc1ccc2c3c(n(CCCCCCn4c5cc(OC)ccc5c5ccnc(C)c54)c2c1)C(C)=NCC3
MCF7 [7]
  Activity: Active
MGC-803 [8]
  Activity: Active
HCT-116 [9]
  Activity: Active

## COc1ccc2c3c(n(Cc4ccc(C)cc4)c2c1)C(C)=NCC3
MCF7 [7]
  Activity: Active
MGC-803 [8]
  Activity: Active
HCT-116 [9]
  Activity: Active

## COC(=O)Cn1c2c(c3ccc(OC)cc31)CCN=C2C
MCF7 [7]
  Activity: Active
MGC-803 [8]
  Activity: Active
HCT-116 [9]
  Activity: Active

## COc1ccc2c3c(n(Cc4ccc5ccccc5c4)c2c1)C(C)=NCC3
MCF7 [1]
  viability at 50 µM: < 10%
HCT-116 [2]
  viability at 50 µM: < 10%
MGC-803 [3]
  IC50: 21.4 µM
MGC-803 [4]
  viability at 50 µM: < 10%
MCF7 [5]
  IC50: 11.9 µM
HCT-116 [6]
  IC50: 6.32 µM

## COc1ccc2c3c(n(CCCCCBr)c2c1)C(C)=NCC3
MCF7 [7]
  Activity: Active
MGC-803 [8]
  Activity: Active
HCT-116 [9]
  Activity: Active

## COC(=O)CCCCn1c2c(c3ccc(OC)cc31)CCN=C2C
MCF7 [7]
  Activity: Active
MGC-803 [8]
  Activity: Active
HCT-116 [9]
  Activity: Active

## COc1ccc2c3c(n(C/C=C/c4ccccc4)c2c1)C(C)=NCC3
MCF7 [7]
  Activity: Active
MGC-803 [8]
  Activity: Active
HCT-116 [9]
  Activity: Active

## COc1ccc2c3c([nH]c2c1)C(C)=NCC3 [HARMALINE]
MCF7 [1]
  viability at 50 µM: ~71%
SGC-7901
  IC50: 4.08 µM
4T1
  IC50: 30.9 µM
HCT-116 [2]
  viability at 50 µM: ~75%
NCI-H1299
  IC50: 48.2 µM
U-87 MG [10]
  IC50: 127 µM
HeLa
  IC50: 28 µM
MGC-803 [4]
  viability at 50 µM: ~120%
A549
  IC50: 67.9 µM
HepG2
  IC50: 11.2 µM
U-87 MG [11]
  IC50: 208 µM

## COC(=O)CCn1c2c(c3ccc(OC)cc31)CCN=C2C
MCF7 [7]
  Activity: Active
MGC-803 [8]
  Activity: Active
HCT-116 [9]
  Activity: Active

## COc1ccc2c3c(n(Cc4ccccc4F)c2c1)C(C)=NCC3
MCF7 [7]
  Activity: Active
MGC-803 [8]
  Activity: Active
HCT-116 [9]
  Activity: Active

## COc1ccc2c3c(n(CCCCBr)c2c1)C(C)=NCC3
MCF7 [7]
  Activity: Active
MGC-803 [8]
  Activity: Active
HCT-116 [9]
  Activity: Active

## C=CCn1c2c(c3ccc(OC)cc31)CCN=C2C
MCF7 [7]
  Activity: Active
MGC-803 [8]
  Activity: Active
HCT-116 [9]
  Activity: Active

## COc1ccc2c3c(n(Cc4cccc(F)c4)c2c1)C(C)=NCC3
MCF7 [7]
  Activity: Active
MGC-803 [8]
  Activity: Active
HCT-116 [9]
  Activity: Active

## COc1ccc2c3c(n(CCc4ccc(F)cc4)c2c1)C(C)=NCC3
MCF7 [7]
  Activity: Active
MGC-803 [8]
  Activity: Active
HCT-116 [9]
  Activity: Active

## COc1ccc2c3ccnc(C)c3n(CCCCCn3c4cc(OC)ccc4c4ccnc(C)c43)c2c1
MCF7 [1]
  viability at 50 µM: ~35%
HCT-116 [2]
  viability at 50 µM: ~31%
MGC-803 [4]
  viability at 50 µM: ~59%

## COc1ccc2c3c(n(CCCCCn4c5cc(OC)ccc5c5ccnc(C)c54)c2c1)C(C)=NCC3
MGC-803 [12]
  Activity: Active
MGC-803 [13]
  Activity: Active
MGC-803 [14]
  Activity: Active
MCF7 [1]
  viability at 50 µM: < 10%
HCT-116 [2]
  viability at 50 µM: < 10%
MGC-803 [15]
  Activity: Active
MGC-803 [16]
  Activity: Active
MGC-803 [17]
  Activity: Active
MGC-803 [18]
  Activity: Active
MGC-803 [3]
  IC50: 5.26 µM
MGC-803 [4]
  viability at 50 µM: < 10%
MGC-803 [19]
  Activity: Active
[20]
  Activity: 0.56%
[21]
  IC50 at 24 h: 47.6 µM
MGC-803 [22]
  Activity: Active
MGC-803 [23]
  Activity: Active
MGC-803 [24]
  Activity: 33.65%
MGC-803 [25]
  Activity: Active
MGC-803 [26]
  Activity: 25.5%
[27]
  Activity: 0.33%
MCF7 [5]
  IC50: 8.67 µM
MGC-803 [28]
  Activity: 44.14%
MGC-803 [29]
  Activity: Active
MGC-803 [30]
  Activity: 20.76%
[31]
  Activity: 0.02%
MGC-803 [32]
  Activity: Active
HCT-116 [6]
  IC50: 3.84 µM

## COc1ccc2c3c(n(Cc4ccccc4)c2c1)C(C)=NCC3
MCF7 [7]
  Activity: Active
MGC-803 [8]
  Activity: Active
HCT-116 [9]
  Activity: Active

## C#CCn1c2c(c3ccc(OC)cc31)CCN=C2C
MCF7 [7]
  Activity: Active
MGC-803 [8]
  Activity: Active
HCT-116 [9]
  Activity: Active

## COC(=O)CCCn1c2c(c3ccc(OC)cc31)CCN=C2C
MCF7 [7]
  Activity: Active
MGC-803 [8]
  Activity: Active
HCT-116 [9]
  Activity: Active
